Measurements as given in publication PMC9234671, “Molecular determinants of αVβ5 localization in flat clathrin lattices – role of αVβ5 in cell adhesion and proliferation” (Journal of Cell Science, 2022).

How the values were obtained:
[1] = system: integrin β5 localization in PA-JEB/β4 keratinocytes; assay: Immunofluorescence: integrin β5 clustering in FAs/FCLs, PA-JEB/β4; type: cell-based, human
Source text: (§1) Fig. 3. Serine 759 and 762 are involved in regulating the localization of integrin β5. (A–C) Integrin β5 containing S759/762E or S759/762A mutations (A) were expressed in β5-deficient PA-JEB/β4 keratinocytes and the subcellular distribution of β5 was compared to β5-deficient keratinocytes expressing wild-type (WT) β5. Merged images show integrin β5 (green), vinculin (B) or clathrin (C) (red), actin (blue) and the cell nuclei (cyan). (D,E) Analysis of wild-type versus mutant integrin β5 clustering in FAs or FCLs. (F–I) PA-JEB/β4 keratinocytes were grown in 10% FCS-supplemented DMEM culture medium overnight and then treated with 5 nM calyculin A (Cal.A) or DMSO (vehicle control) for 30 min prior to fixation. Merged images show integrin β5 (green), vinculin (F) or clathrin (H) (red), actin (blue) and the cell nuclei (cyan), quantifications of β5 clustering in FAs or FCLs are shown in G,I. (J,K) Analysis of integrin β5 clustering in FAs or FCLs in PA-JEB keratinocytes after treatment with Cal.A. Representative confocal microscopy images are shown in Fig. S3. Scale bars: 20 μm. Data were obtained from three independent experiments. Total cells analyzed per condition: 109 (WT), 116 (S>E), 103 (S>A) (D), 81 (WT), 77 (S>E), 101 (S>A) (E), 126 and 123 (G), 111 and 101 (I), 106 and 102 (J), 115 and 109 (K). ****P<0.0001 (Mann–Whitney U-test). Box plots range from the 25th to 75th percentile; central line indicates the median; whiskers show smallest to largest value.
PA-JEB/β4 keratinocytes were seeded on glass coverslips and cultured in complete KGM medium for 24 h, and then treated with DMEM plus 10% FCS for 24 h. Other cell lines were seeded on glass coverslips and cultured in DMEM plus 10% FCS. Cells were fixed with 2% paraformaldehyde (PFA) for 10 min, permeabilized with 0.2% Triton X-100 for 5 min, and blocked with PBS containing 2% bovine serum albumin (BSA; Sigma) for at least 30 min. Next, cells were incubated with the primary antibodies for 1 h at room temperature. Cells were washed three times before incubation with the secondary antibodies for 1 h. Additionally, nuclei were stained with DAPI, and filamentous actin was visualized using Alexa Fluor 488 or 647-conjugated phalloidin (Invitrogen). After three washing steps with PBS, the coverslips were mounted onto glass slides in Mowiol. Images were obtained using a Leica TCS SP5 confocal microscope with a 63× (NA 1.4) oil objective.
Image analysis was performed using Fiji (ImageJ) ([Schindelin et al., 2012]; [Schneider et al., 2012]). To quantify integrin clustering in FAs (based on vinculin staining) versus FCLs (clathrin staining), background was subtracted in both channels using a bilateral filter and the region of interest (ROI) was selected at the cell periphery. Colocalization of integrin clusters and FAs or FCLs was determined using the Image Calculator (command ‘multiply’) on both channels and calculating the area of overlapping clusters as a percentage of the total integrin cluster area per cell using the Analyze Particle function.

[2] = system: integrin β5 localization in PA-JEB keratinocytes; assay: Immunofluorescence: integrin β5 clustering in FAs/FCLs, PA-JEB; type: cell-based, human; conditions: 5 nM calyculin A versus DMSO, 30 min, 10% FCS DMEM, three independent experiments
Source text: as §1, with “Box plots range from the 25th to 75th percentile; central line indicates the median; whiskers show smallest to largest value.” left out

COC[C@@H]([C@H](O)[C@H](O)C(=O)NCC[C@H](C)c1nc(/C=C/C[C@@H]2O[C@]3(C[C@@H](O)[C@@H]2C)O[C@H]([C@H](C[C@H](O)[C@H](C)[C@H](O)[C@H](C)/C=C(C)/C(C)=C/C=C/C(C)=C\C#N)OC)[C@H](OP(=O)(O)O)C3(C)C)co1)N(C)C [calyculin A]
localization of integrin β5 in FAs, PA-JEB/β4 ([1]; 5 nM calyculin A versus DMSO, 30 min, 10% FCS DMEM, colocalization with vinculin, three independent experiments): decreased the localization of integrin β5 in FAs
redistribution of the integrin ([1]; calyculin A treatment, summary in discussion): only led to a minor redistribution of the integrin
localization of integrin β5 in FCLs, PA-JEB ([2]; colocalization with clathrin): increased the localization in FCLs
localization of integrin β5 in FAs, PA-JEB ([2]; colocalization with vinculin): reduced the localization of integrin β5 in FAs
